Test [1] deals with SOX18-SOX18 homodimer (Homo sapiens (Human), UniProt P35713). Nature of the test: ALPHAScreen SOX18-SOX18 homodimerization. In kind it is binding. The conditions noted are these: 5 uM. How it is done: ALPHAScreen was performed as previously described (Sierecki et al., 2014, Sierecki et al., 2013), using the cMyc detection kit and Proxiplate-384 Plus plates (PerkinElmer). The LTE lysate co-expressing the proteins of interest was diluted in buffer A (25 mM HEPES, 50 mM NaCl). For the assay, 12.5 μL (0.4 μg) of Anti-cMyc coated Acceptor Beads in buffer B (25 mM HEPES, 50 mM NaCl, 0.001% NP40, 0.001% casein) were aliquoted into each well. This was followed by the addition of 2 μL of diluted sample, at different concentration, and 2 μL of biotin labeled GFP-Nanotrap in buffer A. The plates were incubated for 45 min at room temperature, then adding 2 μL (0.4 μg) of streptavidin-coated Donor Beads diluted in buffer A, and incubation in the dark for 45 min at room temperature. The ALPHAScreen signal was measured on an Envision Plate Reader (PerkinElmer), using manufacturer's recommended settings (λexc=680/30 nm for 0.18 s, λem=570/100 nm after 37 ms). The resulting bell-shaped curve is an indication of a positive interaction, while a flat line reflects a lack of interaction between the proteins. The measurement of each protein pair was repeated in triplicate.
I is the highest signal level (top of the hook effect curve) and Ineg is the lowest (background) signal level. The signals were normalized to the Iref signal obtained for the strongest interaction. […] Percentage of interaction was calculated as: […]
The ALPHA-Screen Assay was performed as previously described (Sierecki et al. 2014), using the cMyc detection kit and Proxiplate-384 Plus plates (PerkinElmer). A serial dilution of each sample was measured. The LTE lysate co-expressing the proteins of interest was diluted in buffer A (25 mM HEPES, 50 mM NaCl). For the assay, 12.5 μL (0.4 μg) of Anti-cMyc coated Acceptor Beads in buffer B (25 mM HEPES, 50 mM NaCl, 0.001% NP40, casein) were aliquoted into each well. This was followed by the addition of 2 μL of diluted sample and 2 μL of biotin labeled GFP-Nanotrap in buffer A. The plate was incubated for 45 min at RT. Afterward, 2 μL (0.4 μg) of Streptavidin coated Donor Beads diluted in buffer A, were added, followed by incubation in the dark for 45 min at RT. The ALPHA-Screen signal was obtained on an Envision Multilabel Plate Reader (PerkinElmer), using the manufacturer's recommended settings (excitation: 680/30 nm for 0.18 s, emission: 570/100 nm after 37 ms). The resulting bell-shaped curve is an indication of a positive interaction, while a flat line reflects a lack of interaction between the proteins. The measurement of each protein pair was repeated a minimum of three times using separate plates. The Binding Index was calculated as: BI=[(I−I_neg)/(I_ref−I_neg)]×100
For PPI disruption assay, protein pairs expressed in LTE were incubated for 1 h with 100 μM Sm4 or DMSO alone (0.7% DMSO final). 100 μM Sm4 or DMSO was also added to buffer B. PPI disruption was calculated as: (1−I_Sm4/I_DMSO)×100.
For IC50 determination, the assay was identical but a dilution range of Sm4 was used (0.3 to 300 μM). Percentage of interaction was calculated as: I_Sm4/1 DMSO×100. Data from at least 3 independent experiments were fitted in GraphPad Prism (RRID: SCR_007370) version 6.0 using 3-parameter non-linear regression.
(Alpha assays give light when donor and acceptor beads are brought close together.)

Test [2] deals with SOX18[109] HMG fragment (Mus musculus (Mouse), UniProt P43680). As to the kind of experiment: FP DNA-binding competition assay, SOX18[109] HMG fragment. To be noted: for remaining activity at 50 µM: read-out: FP bound fraction (%) 50 μM; for remaining activity at 200 µM: read-out: FP bound fraction (%) 200 μM. Put shortly: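 Fluorescence polarization competition using mouse SOX18[109] fragment (residues 69-177, HMG box plus flanks) at 60 nM with 5 nM 5′-FAM 40 bp Prox1 DNA in 10 mM Tris pH 8.0, 100 mM NaCl, 2-3.33% DMSO. Agitated 5 min RT, 10 min 37° C, 30 min RT, then read (ex 485/em 525 nm), triplicates.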

The values that follow come from patent publication US20240002326A1, “COMPOUNDS AND USE THEREOF IN METHODS OF TREATMENT” (The University of Queensland, priority 2016, published 2024).

Chain of SOX18-SOX18 homodimer (P35713 whole entry): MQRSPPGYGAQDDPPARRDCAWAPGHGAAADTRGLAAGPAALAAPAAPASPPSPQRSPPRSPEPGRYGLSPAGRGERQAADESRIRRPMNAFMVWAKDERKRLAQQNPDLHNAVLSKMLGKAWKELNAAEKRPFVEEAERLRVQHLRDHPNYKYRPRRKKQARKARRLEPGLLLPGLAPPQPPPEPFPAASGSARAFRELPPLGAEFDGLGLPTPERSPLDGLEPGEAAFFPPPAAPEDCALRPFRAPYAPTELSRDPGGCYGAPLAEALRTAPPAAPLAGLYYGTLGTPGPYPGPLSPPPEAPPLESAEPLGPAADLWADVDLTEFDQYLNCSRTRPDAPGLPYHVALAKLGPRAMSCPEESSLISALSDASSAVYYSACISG
Chain of SOX18[109] HMG fragment (P43680 69-177): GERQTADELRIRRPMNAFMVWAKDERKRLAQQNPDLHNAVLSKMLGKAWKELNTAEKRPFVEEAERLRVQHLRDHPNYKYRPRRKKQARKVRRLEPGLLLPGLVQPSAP

Regarding `CCN(CC)C(=O)c1c(O)cc(O)cc1CCc1ccc2ccccc2c1` [Sm26, N,N,diethyl-2,4-hydroxy-6-(2-(naphthalen-2-yl)ethyl)benzamide], in test [1], the “inhibitory activity in respect of SOX18-SOX18 homodimerization” value (from here on “inhibitory activity”) is reported as “some inhibitory activity”. Also, the “FP bound fraction (%) 50 μM” value in test [2] (50 μM, SOX18/DNA binding) is 98.5 ± 5.9%. The “FP bound fraction (%) 200 μM” value in test [2] (200 μM, SOX18/DNA binding) was found to be 128.3 ± 17.2%.
Consider `Oc1cc(CCc2ccccc2)cc(O)c1O` [Sm40, 5-phenethylbenzene-1,2,3-triol], for which the “inhibitory activity” value in test [1] is on record as “some inhibitory activity”. The remaining activity at 50 µM in test [2] (50 μM, SOX18/DNA binding) worked out at 101 ± 12.1%. The remaining activity at 200 µM in test [2] (200 μM, SOX18/DNA binding) stood at 92.7 ± 14.7%. In addition, in test [2] (SAR library, SOX18[109]), the “SOX18-DNA binding inhibition (FP, words)” value is “not active”.
On to `COc1cc(C)cc(/C=C/c2ccc3ccccc3c2)c1C(=O)O` [Sm34, (E)-2-methoxy-4-methyl-6-(2-(naphthalen-2-yl)vinyl)benzoic acid], for which the “inhibitory activity” value in test [1] is recorded as “some inhibitory activity”. The remaining activity at 50 µM in test [2] (50 μM, SOX18/DNA binding) turned out to be 94.2 ± 1.9%. Also, in test [2] (200 μM, SOX18/DNA binding), the remaining activity at 200 µM was found to be 101 ± 1.5%.
